Consider 14 compounds from US11453695B2, “Nucleoside analogues and methods of use thereof” (priority 2016, dated 2022).

The subject of one assay is pancreatic cancer cells. To be noted: background, reported; cited from earlier work.
For assay [1], the system named is Capan-2 (pancreas adenocarcinoma) cell line. As to the kind of experiment: Cell viability assay (Cell Titer Glo), growth inhibition. The assay is classed as cell-based, human. The protocol:
(§1) Growth inhibition of the compound comprises in the invention was tested in vitro using human cancer cell cultures
(§2) HepG2 (liver human hepatocellular carcinoma), BxPC3 and Capan-2 (adenocarcinomas), A549 (lung carcinoma), HCT-116 (colorectal carcinoma) and MCF-7 (breast tumor) cell lines were obtained from ATCC. The HepG2, BxPC3, Capan-2 and MCF-7 cells were placed into 75 ccm^3 tissue culture flasks and grown at 37° C. under a humidified 5% CO2 atmosphere in EMEM and RPMI-1640 medium respectively with 10% fetal bovine serum and 2% penicillin-streptomycin. Trypsin (0.05%) was used to detach cells from the bottom of flask.
(§3) Cells were plated in 96 well plates at a density of 10^4 cells/well and grown for 24 h. Cells were treated with different concentrations of the test compounds or vehicle alone (DMSO) and grown at 37° C. under a humidified 5% CO2 atmosphere. Their corresponding medium was used to dilute the 10 mM stocks of each compound to obtain 1 mM stock solutions and subsequently, the treatment concentrations. After 96 hours of incubation, the plates were equilibrated at room temperature for 30 minutes, […] of Cell Titer Glo® Luminometric Cell Viability Assay reagent (Promega) was added into each well, put on an orbital shaker for 2 minutes and incubated for 10 minutes at room temperature. The plate was transferred to a luminometer (Glomax Promega) and the luminescent signal was recorded. Each treatment at different concentration and the control group were triplicates or duplicates.
(§4) This is a homogeneous method to determine the number of viable cells in culture based on quantification of the ATP present which signals the presence of metabolically active cells.

In assay [2] the test system is BxPC3 (pancreas adenocarcinoma) cell line. The assay is described as above. The assay is classed as cell-based, human. As for the experimental part:
as §1, §2, §3, §4

In assay [3] the test system is HepG2 (liver human hepatocellular carcinoma) cell line. The assay is described as above. The assay is classed as cell-based. The protocol: as §1, §2, §3, §4
In assay [4] the test system is A549 (lung carcinoma) cell line. The assay is described as above. The assay is classed as cell-based. The settings on record: Homo sapiens, 96 hours of incubation. The protocol:
as §1, §2, §3, §4

In assay [5] the test system is MCF-7 (breast tumor) cell line. The description is as above. To be noted: Homo sapiens, MCF7, 96 hours of incubation. The assay is classed as cell-based. The protocol: as §1, §2, §3, §4
The test system of assay [6] is HCT-116 (colorectal carcinoma) cell line. The assay is described as above. The assay is classed as cell-based. To be noted: Homo sapiens, 96 hours of incubation, read-out: Growth Inhibition (%) At 20 μM, HCT-116 (Colon). The protocol:
as §1, §2, §3, §4

The subject of assay [7] is KRAS mutated human pancreatic and liver cancer cell lines (HepG-2, Panc-1, Capan-2). The assay can be described thus: Activity in KRAS mutated, Gemcitabine-resistant cancer cell lines. The assay is classed as cell-based. The protocol:
Liver and pancreatic cancer patients have an extremely poor survival rate (Table 1).
as §3

The subject of a further assay is Panc-1 (pancreas) cells. The assay can be described thus: Growth inhibition in cancer cell lines (FIG. 5). The assay is classed as cell-based, human. To be noted: KRAS mutation.
Excerpt: Molecules such as LCB-2151 and LCB-2132 (Group B) and LCB-2179 (Group C) indeed show antiproliferative activities against cancer cell lines with KRAS mutations. FIG. 5 presents the activity of LCB-2151, LCB-2179, LCB-2132 and Gemcitabine in different cancer cell lines. Most liver and pancreas cell lines have the KRAS protein (oncogene identified in Kiersten rat sarcoma virus), which alters its signal transduction pathway, are resistant to Gemcitabine. […] Both HepG-2 (liver) and Panc-1 (pancreas) have the KRAS mutation and are resistant to Gemcitabine.
as §3

The mark [8] stands for this setting: Homo sapiens, Capan-2; read-out: IC50 (μM), Capan-2 (Pancreas), antiproliferative activity.
The mark [9] stands for this setting: Homo sapiens, BXPC-3; read-out: IC50 (μM), BxPC3 (Pancreas), antiproliferative activity.
[10] abbreviates: Homo sapiens, HepG2; read-out: IC50 (μM), HepG2 (Liver), antiproliferative activity.
[11] abbreviates: Homo sapiens, Capan-2, 96 h, read-out: Growth Inhibition (%) At 20 μM, Capan-2 (Pancreas).
Where [12] appears, read: Homo sapiens, BXPC-3, 96 h, read-out: Growth Inhibition (%) At 20 μM, BxPC3 (Pancreas).
Setting [13] is: Homo sapiens, HepG2, 96 h, read-out: Growth Inhibition (%) At 20 μM, HepG2 (Liver).
Where [14] appears, read: BXPC3 (pancreas), KRAS wild type.

Each structure is given as a SMILES string. Read-outs that look alike come from different tables or passages of the source. A value given as a limit tells only on which side of the number the result lay.

For `CCCCCCCC(=O)Nc1ccn([C@@H]2O[C@H](CO)[C@@H](O)C2(F)F)c(=O)n1`, the EC50 in the assay on pancreatic cancer cells was 100 µM.
Take `CC(C)(CCC(CCSCc1ccc(C(F)(F)F)cc1)SCc1ccc(C(F)(F)F)cc1)CC(=O)Nc1ccn([C@@H]2O[C@H](CO)[C@@](C)(CO)C2(F)F)c(=O)n1` (stereo partly drawn) [LCB-2139, N-(1-((2R,4R,5S)-3,3-difluoro-4,5-bis(hydroxymethyl)-4-methyltetrahydrofuran-2-yl)-2-oxo-1,2-dihydropyrimidin-4-yl)-3,3-dimethyl-6,8-bis((4-(trifluoromethyl)benzyl)thio)octanamide]: the IC50 in assay [1] (setting [8]), in [2] (setting [9]) and in assay [3] (setting [10]) was 8 µM each time.
As to `CC(C)OC(=O)[C@H](C)NP(=O)(OC[C@H]1O[C@@H](n2cnc3c(N)ncnc32)C(F)(F)C1(C)CO)Oc1ccccc1` (stereo partly shown) [LCB2093], the inhibition at 20 µM was 22% in [1] (setting [11]); 6% in assay [2] (setting [12]); 0% in assay [4]; 14% in assay [5]; 28% in assay [6]; 6% in assay [3] (setting [13]).
Turning to `CC(C)OC(=O)[C@H](C)NP(=O)(OC[C@H]1O[C@@H](n2cnc3c(N)nc(Cl)nc32)[C@H](F)C1(C)COP(=O)(N[C@@H](C)C(=O)OC(C)C)Oc1ccccc1)Oc1ccccc1` (stereo partly shown) [LCB2080], the inhibition at 20 µM in assay [1] (setting [11]) amounted to 58%; in [2] (setting [12]) it was 16%; in assay [4], 34%; in assay [5] it was 79%; in assay [6] it was 40%; in [3] (setting [13]), 0%.
Consider `CC(C)(CCC(CCSCc1ccc(C(F)(F)F)cc1)SCc1ccc(C(F)(F)F)cc1)CC(=O)Nc1ccn([C@H]2CC(O)[C@@H](CO)O2)c(=O)n1` (stereo partly shown) [LCB-2132], for which, in assay [7], the “EC90 activity against KRAS mutated cancer cell lines resistant to Gemcitabine” value (shortened to “EC90 activity”) was “show EC90 activity”.
Turning to `Nc1ccn([C@@H]2O[C@H](CO)[C@@H](O)C2(F)F)c(=O)n1` [Gemcitabine, reference compound], the “growth inhibition (FIG. 5), in words” value in [1] (Capan-2) was “no growth inhibition”; in assay [2] (setting [14]), “growth is blocked”. Further, the “plateau of inhibition (FIG. 5)” value came out at 50% in [3] (HepG-2 (liver), KRAS mutation; first of the two plateaus named) and 30% in the assay with Panc-1 (pancreas) cells (second of the two plateaus named).
For the compound `COc1nc(Cl)nc2c1ncn2[C@@H]1O[C@H](COP(=O)(N[C@@H](C)C(=O)OC(C)C)Oc2ccccc2)C(C)(COP(=O)(N[C@@H](C)C(=O)OC(C)C)Oc2ccccc2)[C@H]1F` (stereo partly shown) [LCB2079], the inhibition at 20 µM came to 50% in [1] (setting [11]); 40% in [2] (setting [12]); 70% in [4]; 96% in [5]; 51% in assay [6]; 72% in [3] (setting [13]). Besides, the inhibition at 50 µM in assay [5] (50 μM) was over 96%.
In the case of `CC(C)(CCC(CCSCc1ccc(F)cc1)SCc1ccc(F)cc1)CC(=O)Nc1ccn([C@@H]2O[C@H](CO)[C@@](C)(CO)C2(F)F)c(=O)n1` (stereo partly drawn) [LCB-2140, N-(1-((2R,4R,5S)-3,3-difluoro-4,5-bis(hydroxymethyl)-4-methyltetrahydrofuran-2-yl)-2-oxo-1,2-dihydropyrimidin-4-yl)-6,8-bis((4-fluorobenzyl)thio)-3,3-dimethyloctanamide], the figures for the IC50 in assay [1] (setting [8]), in [2] (setting [9]) and in assay [3] (setting [10]) were 12.5 µM, 8 µM and 8 µM, respectively.
Consider `CC(C)OC(=O)[C@H](C)NP(=O)(OC[C@H]1O[C@@H](n2cnc3c(NCc4ccccc4)nc(Cl)nc32)[C@H](F)C1(C)COP(=O)(N[C@@H](C)C(=O)OC(C)C)Oc1ccccc1)Oc1ccccc1` (stereo partly shown) [LCB2076], for which the inhibition at 20 µM in [1] (setting [11]) was found to be 14%; in assay [2] (setting [12]), 25%; in assay [5] it was 69%; in assay [6], 10%; in [3] (setting [13]) it was 0%.
With `CC(C)(CC[C@H](CCSCc1ccc(C(F)(F)F)cc1)SCc1ccc(C(F)(F)F)cc1)CC(=O)Nc1ccn([C@@H]2O[C@H](CO)[C@@](C)(CO)C2(F)F)c(=O)n1` [LCB-2151, (R)—N-(1-((2R,4R,5S)-3,3-difluoro-4,5-bis(hydroxymethyl)-4-methyltetrahydrofuran-2-yl)-2-oxo-1,2-dihydropyrimidin-4-yl)-3,3-dimethyl-6,8-bis((4-(trifluoromethyl)benzyl)thio) octanamide], the “growth inhibition (FIG. 5), in words” value is on record as “block completely the growth” in [1] (Capan-2); “block completely the growth” in [2] (setting [14]); “block completely the growth” in [3] (HepG-2 (liver), KRAS mutation); “block completely the growth” in the assay on Panc-1 (pancreas) cells. Besides, the IC50 in assay [1] (setting [8]) was 8 µM; in [2] (setting [9]), 5 µM; in assay [3] (setting [10]) it was 8 µM. In addition, the “EC90 activity” value in assay [7] was “show EC90 activity”.
`CC(C)OC(=O)[C@H](C)NP(=O)(OC[C@H]1O[C@@H](n2cnc3c(N)ncnc32)C(F)(F)C1(C)COP(=O)(N[C@@H](C)C(=O)OC(C)C)Oc1ccccc1)Oc1ccccc1` (stereo partly shown) [LCB2092]: the inhibition at 20 µM in assay [1] (setting [11]) worked out at 48%; in [2] (setting [12]) it was 62%; in [4] it was 25%; in assay [5], 54%; in assay [6], 60%; in [3] (setting [13]) it was 16%.
With `CC(C)OC(=O)[C@H](C)NP(=O)(OC[C@H]1O[C@@H](n2cnc3c(N)nc(Cl)nc32)C(F)(F)C1(C)COP(=O)(N[C@@H](C)C(=O)OC(C)C)Oc1ccccc1)Oc1ccccc1` (stereo partly shown) [LCB2105], the inhibition at 20 µM was determined as 48% in [1] (setting [11]), 47% in [2] (setting [12]) and 53% in [6].
Take `CC(C)OC(=O)[C@H](C)NP(=O)(OC[C@H]1O[C@@H](n2cnc3c(NCc4ccccc4)ncnc32)C(F)(F)C1(C)COP(=O)(N[C@@H](C)C(=O)OC(C)C)Oc1ccccc1)Oc1ccccc1` (stereo partly shown) [LCB2095]: the inhibition at 20 µM in [1] (setting [11]) turned out to be 46%; in [2] (setting [12]), 67%; in assay [4], 3%; in [5] it was 49%; in [6] it was 31%; in [3] (setting [13]) it was 0%.
Take `CC(C)OC(=O)[C@H](C)NP(=O)(OC[C@H]1O[C@@H](n2ccc(NC(=O)CC(C)(C)CC[C@H](CCSCc3ccc(C(F)(F)F)cc3)SCc3ccc(C(F)(F)F)cc3)nc2=O)[C@](C)(CO)[C@@H]1O)Oc1ccccc1` (stereo partly drawn) [LCB-2179, Isopropyl ((((2R,3S,4R,5R)-5-(4-(3,3-dimethyl-6,8-bis((4-(trifluoromethyl)benzyl)thio)octanamido)-2-oxopyrimidin-1(2H)-yl)-3-hydroxy-4-(hydroxymethyl)-4-methyltetrahydrofuran-2-yl)methoxy)(phenoxy)phosphoryl)-L-alaninate]: the “growth inhibition (FIG. 5), in words” value in assay [1] (Capan-2) is recorded as “block completely the growth”; in [2] (setting [14]) it was “block completely the growth”; in assay [3] (HepG-2 (liver), KRAS mutation) it was “block completely the growth”; in the assay with Panc-1 (pancreas) cells, “block completely the growth”. In addition, the IC50 in assay [1] (Homo sapiens, Capan-2, read-out: IC50 (μM), Capan-2 (Pancreas), antiproliferative activity) was determined as 15 µM; in [2] (Homo sapiens, BXPC-3, read-out: IC50 (μM), BxPC3 (Pancreas), antiproliferative activity), 7 µM; in [3] (Homo sapiens, HepG2, read-out: IC50 (μM), HepG2 (Liver), antiproliferative activity), 15 µM. Besides, the “EC90 activity” value in assay [7] is listed as “show EC90 activity”.
